What was measured:
B. subtilis 168 = test: Bliss interaction score (quartile over a dose matrix) (fitness difference); higher = more antagonism (negative = synergy)
Summary of the method: (§1)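 The Bliss score is observed minus expected fitness under the product model, reported as quartiles over technical, biological and donor/recipient replicates. Fitness is the OD595 at entry into stationary phase divided by the plate's robust no-drug mean and capped at 1. Single-drug fitness was inferred from combination data.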

S. pneumoniae D39V [1] = test: as above
Summary of the method: as §1

S. aureus Newman [2] = test: as above
Summary of the method: as §1

S. aureus DSM 20231 [3] = test: as above
Summary of the method: as §1

S. pneumoniae D39V [4] = test: fitness (endpoint OD595 vs no drug) (fraction); higher = more growth
Summary of the method: (§2)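 Cultures at OD595 0.01 were dispensed into 384-well plates in TSB, LB Lennox or CY and incubated at 37 °C. Every 30 min for 14 h, OD595 was read and corrected by the first reading. Fitness is the optical density at entry into stationary phase relative to the robust mean of no-drug control wells, capped at 1.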

S. aureus Newman [5] = test: as above
Summary of the method: as §2

S. aureus DSM 20231 [6] = test: as above
Summary of the method: as §2
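Wherever Bliss interaction score (quartile over a dose matrix) is given: first quartile when negative (synergy) and third quartile when positive (antagonism).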

Cn1c2cccc(=O)c-2nc2ccccc21 [Pyocyanin] + Cn1nnc(-c2ccc(-c3ccc(N4C[C@H](CO)OC4=O)cc3F)cn2)n1 [Tedizolid]
Conditions	Bliss interaction score
B. subtilis 168	0.0439
S. aureus DSM 20231 [3]	0.0928
S. aureus Newman [2]	-0.065
S. pneumoniae D39V [1]	-0.0686

fitness
Conditions	partner 0.03125 µg/mL	partner 0.0625 µg/mL	partner 0.125 µg/mL	partner 0.25 µg/mL
S. aureus DSM 20231 [6], first compound 1.25 µg/mL	–	0.813	0.739	0.218
S. aureus DSM 20231 [6], first compound 2.5 µg/mL	–	0.8	0.701	0.242
S. aureus DSM 20231 [6], first compound 5 µg/mL	–	0.635	0.565	0.169
S. aureus Newman [5], first compound 1.25 µg/mL	–	0.853	0.789	–
S. aureus Newman [5], first compound 2.5 µg/mL	–	0.764	0.651	–
S. aureus Newman [5], first compound 5 µg/mL	–	–	0.248	0.161
S. pneumoniae D39V [4], first compound 0.325 µg/mL	0.976	0.978	0.798	–
S. pneumoniae D39V [4], first compound 0.65 µg/mL	0.97	0.952	0.844	–
S. pneumoniae D39V [4], first compound 1.3 µg/mL	0.753	0.731	0.652	–

fitness, S. pneumoniae D39V [4], one replicate
Conditions	first compound 0.325 µg/mL	first compound 0.65 µg/mL
partner 0.25 µg/mL	0.736	0.821
partner 0.5 µg/mL	0.344	0.545

CN(N=O)C(=O)N[C@@H](C=O)[C@@H](O)[C@H](O)[C@H](O)CO [Streptozotocin] + CN[C@H](CC(C)C)C(=O)N[C@H]1C(=O)N[C@@H](CC(N)=O)C(=O)N[C@H]2C(=O)N[C@H]3C(=O)N[C@H](C(=O)N[C@H](C(=O)O)c4cc(O)cc(O)c4-c4cc3ccc4O)[C@H](O)c3ccc(c(Cl)c3)Oc3cc2cc(c3O[C@@H]2O[C@H](CO)[C@@H](O)[C@H](O)[C@H]2O[C@H]2C[C@](C)(N)[C@H](O)[C@H](C)O2)Oc2ccc(cc2Cl)[C@H]1O [Vancomycin]
Conditions	Bliss interaction score
B. subtilis 168	-0.0175
S. aureus DSM 20231 [3]	0.0534
S. aureus Newman [2]	-0.0371
S. pneumoniae D39V [1]	0.0398

fitness
Conditions	first compound 0.15 µg/mL	first compound 0.3 µg/mL	first compound 0.6 µg/mL	first compound 1.2 µg/mL	first compound 2.4 µg/mL	first compound 4.8 µg/mL
S. aureus DSM 20231 [6], partner 0.1875 µg/mL	0.861	0.757	0.716	–	–	–
S. aureus DSM 20231 [6], partner 0.375 µg/mL	0.912	0.845	0.767	–	–	–
S. aureus DSM 20231 [6], partner 0.75 µg/mL	0.946	0.895	0.839	–	–	–
S. aureus Newman [5], partner 0.1875 µg/mL	0.861	0.792	0.585	–	–	–
S. aureus Newman [5], partner 0.375 µg/mL	0.82	0.758	0.515	–	–	–
S. aureus Newman [5], partner 0.75 µg/mL	0.885	0.763	0.539	–	–	–
S. pneumoniae D39V [4], partner 0.03125 µg/mL	–	–	–	0.998	0.99	0.999
S. pneumoniae D39V [4], partner 0.0625 µg/mL	–	–	–	0.911	0.881	0.932
S. pneumoniae D39V [4], partner 0.125 µg/mL	–	–	–	0.746	0.757	0.794

fitness, S. pneumoniae D39V [4], one replicate
Conditions	first compound 1.2 µg/mL	first compound 2.4 µg/mL	first compound 4.8 µg/mL
partner 0.25 µg/mL	0.655	0.639	0.536
partner 0.5 µg/mL	0.327	0.333	0.424

CN(N=O)C(=O)N[C@@H](C=O)[C@@H](O)[C@H](O)[C@H](O)CO [Streptozotocin] + Cn1nnc(-c2ccc(-c3ccc(N4C[C@H](CO)OC4=O)cc3F)cn2)n1 [Tedizolid]
Conditions	Bliss interaction score
B. subtilis 168	-0.0702
S. aureus DSM 20231 [3]	0.0552
S. aureus Newman [2]	-0.0487
S. pneumoniae D39V [1]	-0.075

fitness
Conditions	partner 0.03125 µg/mL	partner 0.0625 µg/mL	partner 0.125 µg/mL	partner 0.25 µg/mL
S. aureus DSM 20231 [6], first compound 0.15 µg/mL	–	0.799	0.553	0.207
S. aureus DSM 20231 [6], first compound 0.3 µg/mL	–	0.833	0.58	0.195
S. aureus DSM 20231 [6], first compound 0.6 µg/mL	–	0.701	0.5	0.152
S. aureus Newman [5], first compound 0.15 µg/mL	–	0.822	0.737	0.304
S. aureus Newman [5], first compound 0.3 µg/mL	–	0.638	–	0.297
S. aureus Newman [5], first compound 0.6 µg/mL	–	0.471	0.409	0.151
S. pneumoniae D39V [4], first compound 1.2 µg/mL	0.921	0.923	0.809	–
S. pneumoniae D39V [4], first compound 2.4 µg/mL	0.921	0.908	0.828	–
S. pneumoniae D39V [4], first compound 4.8 µg/mL	0.932	0.868	0.87	–

fitness, S. pneumoniae D39V [4], one replicate
Conditions	first compound 1.2 µg/mL	first compound 2.4 µg/mL	first compound 4.8 µg/mL
partner 0.25 µg/mL	0.598	0.653	0.791
partner 0.5 µg/mL	0.426	0.464	0.547
